From patent publication US20240263207A1, “IN VIVO FLUORINATION” (Danmarks Tekniske Universitet, priority 2018, published 2024)
Like-named read-outs stand apart in the source and are kept apart here.

What was measured:
XylS/Pm system = conditions: Calero 2016; cited from earlier work
PNP FlB1 = experiment: In vitro phosphorylase activity assay with cell extracts expressing FlB1; assay type: biochemical, Streptomyces sp. MA37; conditions: 20 hours of incubation, extracts with plasmid pFB-T7FlB1(NHis)
Description: In vitro biofluorination was performed with the strain P. putida KT2440 harboring the plasmids pFB-PmflA1, pFB-PT7flB1(NHis), and pFB-PT7flA1, and pPS23 or pSEVA231-PT7pr as negative controls, respectively. Overnight cultures of the strains were diluted to an OD600 of 0.1 in fresh minimal medium, in 250-ml shake flasks. Cells were grown for six hours at 30° C. with shaking of 200 rpm, when they reached an OD600 between 0.4-0.6, after which they were induced with 3-MB 1 mM for the XylS/Pm system or 15 mM of NaF for the FRS-PT7. After 20 hours of incubation, all the volume of culture was centrifuged at 5000 rpm for 10 minutes at 4° C., and the supernatant was discarded. Cellular pellets were washed with Tris-HCl 50 mM pH7.8 and resuspended in a final volume of 3 ml. Cells were disrupted using glass beads in a bead beater, using a program of 6000 rpm for 20 seconds. […] Protein concentrations were determined using a Bradford assay, yielding a concentration of at least 1 mg/ml.
Similarly, for phosphorylase activity assays, 1 ml of the protein fraction from cultures expressing the phosphorylase was then mixed with 0.2 mM of 5′-FDA, in Tris-HCl 50 mM pH7.8. […] After 20 hours of incubation at 30° C., the rest of the reaction was inactivated as described before and the supernatant was taken and analyzed by HPLC. […]

[1] = biological target: T1, E. coli PNP, coded by the gene deoD (Escherichia coli, UniProt P0ABP8); experiment: In vitro conversion of 5′-FDA by cell extracts expressing DeoD; assay type: biochemical; conditions: 20 hours
T1 construct: made in house; host or cells: Pseudomonas putida (pPS23 vector, XylS/Pm system; crude cell extract, not purified)
T1 sequence (P0ABP8 whole entry): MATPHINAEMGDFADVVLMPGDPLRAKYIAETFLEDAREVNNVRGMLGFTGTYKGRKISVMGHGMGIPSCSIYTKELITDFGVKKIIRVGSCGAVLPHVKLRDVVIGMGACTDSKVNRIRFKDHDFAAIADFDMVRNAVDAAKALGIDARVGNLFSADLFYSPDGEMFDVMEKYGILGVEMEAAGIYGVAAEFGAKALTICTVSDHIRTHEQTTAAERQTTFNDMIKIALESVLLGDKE
Description: (§1) The E. coli purine nucleotide phosphorylase, coded by the gene deoD (SEQ ID NO: 14), as well as the nucleosidase pfs (SEQ ID NO: 16), were amplified by PCR from the genome of the strain MG1655 using reverse primers containing the sequence to introduce a 6×His tag, in order to allow purification if needed. These fragments were respectively mixed with a PCR fragment amplified with USER primers of the pPS23 vector, containing the XylS/Pm expression system. The cloning was performed by USER cloning as described above.
(§2) We furthermore explored the possibility that 5′-FDA could be utilized for other enzymes different to the endogenous of the fluorination pathway from Streptomyces. For this purpose, we used another PNP and a nucleosidase of E. coli. The E. coli PNP, coded by the gene deoD (SEQ ID NO: 14), is able to perform the same reaction as FlB1, and produce 5′-FDRP, whereas the nucleosidase, coded by the gene pfs (SEQ ID NO: 16), removes the […] of 5′-FDA, yielding the sugar 5′-fluorodeoxyribose. These three enzymes share a similarity of 26% in their amino acidic sequence, and contain a common domain, the PNP_UDP_1 domain (PF0148), belonging to the Phosphorylase superfamily. To test the activity of these two enzymes, they were overexpressed in P. putida and the cell extracts were incubated with the substrate 5′-FDA.

[2] = biological target: T2, nucleosidase, coded by the gene pfs (Escherichia coli, UniProt P0AF12); experiment: In vitro conversion of 5′-FDA by cell extracts expressing Pfs; assay type: biochemical, E. coli; conditions: 20 hours
T2 construct: made in house; host or cells: Pseudomonas putida (pPS23 vector, XylS/Pm system; crude cell extract, not purified)
T2 sequence (P0AF12 whole entry): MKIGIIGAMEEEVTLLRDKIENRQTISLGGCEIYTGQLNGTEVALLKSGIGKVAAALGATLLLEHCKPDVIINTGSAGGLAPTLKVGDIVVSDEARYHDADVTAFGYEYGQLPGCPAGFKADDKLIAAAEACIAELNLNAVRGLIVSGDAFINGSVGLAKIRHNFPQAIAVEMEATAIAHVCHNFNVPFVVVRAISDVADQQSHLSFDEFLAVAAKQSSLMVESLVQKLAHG
Description: as §1, §2

P. putida KT2440ΔcrcB [3] = test system: P. putida KT2440ΔcrcB
Description: (§3) Overnight cultures of P. putida KT2440 and P. putida KT2440ΔcrcB were diluted 20 times in 10 mL of modified M9 minimal medium containing different concentrations of NaF. Cells were grown in 96-well microtiter plates (flat bottom, Greiner Bio-one) at 30° C. and 200 rpm in an ELx808 microtiter plate reader (BioTek). Cells exposed to NaF at various concentrations were incubated in a microtiter plate reader for 24 hours, and growth was followed by measuring OD630 every 30 minutes. The concentrations used for each strain were 0, 25, 50, 75, 125, 200 and 250 mM for P. putida KT2440, and 0, 0.1, 0.5, 1 and 5 mM for P. putida KT2440ΔcrcB.
(§4) The effect of the deletion of crcB on the growth in the presence of high concentrations of NaF in P. putida KT2440 was assessed by calculating the minimal inhibitory concentrations (MICs) of NaF needed to suppress the growth in both a wild-type and a ΔcrcB mutant.

P. putida KT2440 = conditions: minimal medium, A600 after 20 hours
Description: as §3, §4

P. putida KT2440ΔcrcB [4] = conditions: data not shown
Description: Growth arrest by NaF in P. putida KT2440ΔcrcB was performed by diluting 20 times the overnight cultures in 10 mL of modified M9 minimal medium. Cells were grown in 96-well microtiter plates (flat bottom, Greiner Bio-one) at 30° C. and 200 rpm in an ELx808 microtiter plate reader (BioTek). After six hours of incubation, the cultures had reached an OD630 of 0.5, and the NaF was added at different concentrations. Cells exposed to the stressor were incubated in a microtiter plate reader for 24 hours, and growth was followed by measuring OD630 every 30 minutes. The concentrations of NaF used were 0, 0.05, 0.1, 0.5, 0.75, 1, 2 and 5 mM.
To explore the possibility of having a growth-decoupled platform for biofluorination, we tested the effect of NaF in the growth when added in mid-exponential phase.

[5] = test system: F^− responsive riboswitch (FRS) from P. syringae; experiment: Expression assay, FRS constructs FRSv1-4 before msfGFP in P. putida KT2440; assay type: cell-based, Pseudomonas putida; conditions: 0, 1, 5 and 15 mM of NaF
Description: Overnight cultures of P. putida KT2440 with plasmids pSEVA441-FRSv1, pSEVA441-FRSv2, pSEVA441-FRSv3, pSEVA441-FRSv4, or pSEVA441 as autofluorescence control, were diluted 40 times in 10 ml of minimal medium. […] Subsequently, kinetics of the growth and fluorescence, using wavelengths of excitation and emission of 485 nm and 528 nm, respectively, were performed using a SynergyMX (BioTek) microtiter plate reader for 20 hours. Measurements for kinetics were carried out every ten minutes and three independent biological replicates were carried out.
To check the performance of the riboswitch in P. putida KT2440 we cloned four different versions of the riboswitch before the fluorescent reporter protein msfGFP. In the constructions FRSv1 and FRSv2 we kept the original promoter of gene eriC^F, whereas in FRSv3 and FRSv4 we changed the promoter to a constitutive heterologous promoter, PEM7. In the constructions FRSv1 and FRSv3 we conserved the first 8 amino acids of the original eriC^F gene as well, whereas FRSv2 and FRSv4 started with the coding sequence of the msfGFP (FIG. 2).

FRS-PT7 system [6] = experiment: Expression assay, FRS-PT7 system with PT7-msfgfp in P. putida KT2440ΔcrcB::FRS-T7RNAP; assay type: cell-based, Pseudomonas putida; conditions: lower NaF concentrations than in the P. putida KT2440 background
Description: (§5) Overnight cultures of P. putida KT2440 with plasmids pSEVA441-FRSv1, pSEVA441-FRSv2, pSEVA441-FRSv3, pSEVA441-FRSv4, or pSEVA441 as autofluorescence control, were diluted 40 times in 10 ml of minimal medium. […] Subsequently, kinetics of the growth and fluorescence, using wavelengths of excitation and emission of 485 nm and 528 nm, respectively, were performed using a SynergyMX (BioTek) microtiter plate reader for 20 hours. Measurements for kinetics were carried out every ten minutes and three independent biological replicates were carried out. The same procedure was carried out with P. putida KT2440::FRS-T7RNAP and P. putida KT2440ΔcrcB::FRS-T7RNAP strains containing the plasmid pSEVA231-T7pr::msfGFP as well as with the plasmid pSEVA231-T7pr, used as an autofluorescence control.

FRS-PT7 system [7] = test system: FRS-PT7 system
Description: as §5

Cc1cccc(C(=O)O)c1 [3-MB, 3-methylbenzoate]
Inducer concentration needed to achieve full expression (XylS/Pm system): 0.5 mM

Nc1ncnc2c1ncn2[C@@H]1O[C@H](CF)[C@@H](O)[C@H]1O [5′-FDA, 5′-fluoro-5′-deoxyadenosine]
Change of 5′-FDA concentration versus initial concentration (PNP FlB1): a decrease in the concentration of 5′-FDA
Consumption of substrate 5′-FDA (product 5′-FDRP detected by LC-MS) [1]: reduced or depleted completely
Consumption of substrate 5′-FDA (product 5′-fluorodeoxyribose detected by LC-MS) [2]: reduced or depleted completely

[Cl-].[Na+] [NaCl, reference compound]
Effect on growth of the ΔcrcB mutant versus wild-type (P. putida KT2440ΔcrcB [3]; same assays in the presence of NaCl, data not shown): no such effect was seen

[F-].[Na+] [NaF, Sodium fluoride]
NaF concentration in which the strain was able to thrive (MIC assay) (P. putida KT2440): 75 mM
Growth inhibition on plates (P. putida KT2440ΔcrcB [3]; LB plates containing 0.5 and 1 mM of NaF): This effect was also seen
NaF concentration at which the strain was not able to grow (MIC assay) (P. putida KT2440ΔcrcB [3]; minimal medium, A600 after 20 hours): 0.5 mM
Effect on growth (P. putida KT2440ΔcrcB [4]; 0.5 mM of NaF added in mid-exponential phase): a decrease in the growth phase was found
Effect on growth (P. putida KT2440ΔcrcB [4]; 1 mM of NaF added in mid-exponential phase): stopped cell growth almost completely
Fluorescence response of the four FRS constructs [5]: an increase of the fluorescence when higher concentrations of NaF were used
Expression levels relative to the wild-type background (FRS-PT7 system [6]): almost two times higher than in the wild-type background
Fluorescence response of the FRS-PT7 system (FRS-PT7 system [7]; 0, 1 and 15 mM of NaF): led to an increase of the cells fluorescence
Final growth of the cultures (FRS-PT7 system [7]; NaF concentrations used for induction (up to 15 mM)): not affected
